We go through 28 compounds from US20200071326A1, “TAM KINASE INHIBITORS” (Syros Pharmaceuticals, Inc., priority 2017, published 2020).

Structures can show the parent of a compound that is named as a salt. Where only a bound is given, the exact number is not on record here.

By Ki is commonly meant the equilibrium dissociation constant of an inhibitor or competing ligand from its target.

In assay [1] the target is T1, TYRO3 (Homo sapiens, UniProt Q06418).
T1 sequence (Q06418 41-890): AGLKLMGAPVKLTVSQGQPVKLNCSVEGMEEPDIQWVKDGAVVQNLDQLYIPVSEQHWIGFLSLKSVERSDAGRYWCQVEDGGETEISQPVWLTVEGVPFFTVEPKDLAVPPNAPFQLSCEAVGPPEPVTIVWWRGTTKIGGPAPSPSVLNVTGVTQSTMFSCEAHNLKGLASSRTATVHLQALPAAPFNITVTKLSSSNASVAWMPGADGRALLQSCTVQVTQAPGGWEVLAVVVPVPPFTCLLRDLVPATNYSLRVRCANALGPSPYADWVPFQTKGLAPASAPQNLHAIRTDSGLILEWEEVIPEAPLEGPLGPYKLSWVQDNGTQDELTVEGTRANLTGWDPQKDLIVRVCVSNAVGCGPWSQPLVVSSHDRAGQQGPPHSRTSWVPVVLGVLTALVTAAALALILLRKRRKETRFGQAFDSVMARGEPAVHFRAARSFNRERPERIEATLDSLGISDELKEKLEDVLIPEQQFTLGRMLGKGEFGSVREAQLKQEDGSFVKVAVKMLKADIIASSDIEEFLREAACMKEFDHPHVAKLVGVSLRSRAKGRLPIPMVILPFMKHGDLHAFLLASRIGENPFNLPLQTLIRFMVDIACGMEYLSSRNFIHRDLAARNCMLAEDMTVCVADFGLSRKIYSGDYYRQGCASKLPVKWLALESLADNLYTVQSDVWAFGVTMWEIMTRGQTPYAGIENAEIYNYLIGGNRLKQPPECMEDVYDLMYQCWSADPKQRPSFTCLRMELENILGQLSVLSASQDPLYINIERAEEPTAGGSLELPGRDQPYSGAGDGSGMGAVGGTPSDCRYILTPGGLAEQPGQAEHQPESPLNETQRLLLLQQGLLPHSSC
In words: IMAP fluorescence polarization kinase assay, TYRO3. The format is biochemical. The conditions noted are these: ATP 54.0 μM, enzyme 2.5 nM, 60 minutes, read-out: TYRO3 inhibitory constant (Ki). As to the method: (§1) Activities of compounds against each of TYRO3, AXL, and MERTK as well as against FLT3, were determined using an immobilized metal ion affinity-based fluorescence polarization (“IMAP”) assay. A fluorescently-labeled substrate peptide was phosphorylated in the kinase reaction, after which a binding solution containing large trivalent metal-based nanoparticles was added and the phosphorylated substrate binds to these beads. This reduces the rotational speed of the substrate which is then detected using fluorescence polarization as a read-out.
(§2) The substrates used for each enzyme are as follows: AXL: 5F1-KKKKEEIYFFFG-NH2(SEQ ID NO:1); FLT3: 5F1-KKKKEEIYFFF-NH2 (SEQ ID NO:2); MERTK: 5F1-EFPIYDFLPAKKK-NH2 (SEQ ID NO:3); and TYRO3: 5F1-EFPIYDFLPAKKK-NH2 (SEQ ID NO:4).
(§3) This assay was performed in a 384-well, polystyrene microplate in a final volume of 8 μl. Substrate (final concentration=400 nM), ATP (final concentrations=24.7μM for AXL; 2.74 μM for FLT3; 2.69 μM for MERTK; and 54.0 μM for TYRO3), compounds and enzyme (final concentrations=2.5 nM for AXL, FLT3 and TYRO3; 1.5 nM for MERTK) were pipetted in this order into the appropriate reaction buffer (AXL: 50 mM HEPES, pH 8.0, 1 mM DTT, 10 mM MgCl2, 0.01% BRU35, 0.01% Triton X-100; FLT3: 50 mM HEPES, pH 8.0, 1 mM DTT, 10 mM MgCl2, 0.01% Triton X-100, 0.01% NP40; MERTK/TYRO3: 50 mM HEPES, pH 8.0, 1 mM DTT, 10 mM MgCl2, 0.01% Triton X-100) and incubated at room temperature for varying times (AXL, FLT3 and MERTK: 240 minutes; TYRO3: 60 minutes). IMAP binding solution was then dispensed, the plate incubated for 60 minutes at room temperature and the fluorescence polarization measured. Data were analyzed using XLfit.
(In fluorescence polarisation assays a small probe gives low polarisation when free and higher when bound to something large.)

The target of assay [2] is T2, AXL (Homo sapiens, UniProt P30530).
T2 sequence (P30530 26-894): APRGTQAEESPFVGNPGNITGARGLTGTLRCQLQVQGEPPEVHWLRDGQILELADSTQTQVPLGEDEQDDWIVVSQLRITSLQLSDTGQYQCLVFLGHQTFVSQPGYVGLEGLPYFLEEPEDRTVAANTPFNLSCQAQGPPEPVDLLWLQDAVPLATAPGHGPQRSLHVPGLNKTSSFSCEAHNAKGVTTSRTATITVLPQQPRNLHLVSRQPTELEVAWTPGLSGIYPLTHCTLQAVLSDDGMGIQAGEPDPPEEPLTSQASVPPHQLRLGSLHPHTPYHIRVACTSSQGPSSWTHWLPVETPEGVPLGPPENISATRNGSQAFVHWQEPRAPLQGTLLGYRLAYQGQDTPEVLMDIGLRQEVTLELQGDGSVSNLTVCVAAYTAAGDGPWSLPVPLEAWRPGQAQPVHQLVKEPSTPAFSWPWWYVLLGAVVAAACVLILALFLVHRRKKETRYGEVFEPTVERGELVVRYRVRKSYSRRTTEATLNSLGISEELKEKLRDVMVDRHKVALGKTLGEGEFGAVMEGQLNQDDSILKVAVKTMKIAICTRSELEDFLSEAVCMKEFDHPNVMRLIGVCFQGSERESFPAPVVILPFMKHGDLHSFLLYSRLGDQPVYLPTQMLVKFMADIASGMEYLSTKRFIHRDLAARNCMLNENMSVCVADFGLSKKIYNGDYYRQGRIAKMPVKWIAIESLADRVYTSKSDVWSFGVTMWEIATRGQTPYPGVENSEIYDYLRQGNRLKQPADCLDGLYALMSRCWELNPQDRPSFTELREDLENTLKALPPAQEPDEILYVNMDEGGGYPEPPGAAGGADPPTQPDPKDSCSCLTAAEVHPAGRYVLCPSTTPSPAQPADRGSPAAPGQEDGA
In words: IMAP fluorescence polarization kinase assay, AXL. Format: biochemical. To be noted: ATP 24.7 μM, enzyme 2.5 nM, 240 minutes, read-out: AXL inhibitory constant (Ki). As to the method:
as §1, §2, §3

Regarding `CCCc1cc2c(N[C@H]3CC[C@H](N)CC3)c(-c3ccc(S(=O)(=O)N4CCOCC4)cn3)cnc2[nH]1` [Compound 115], the Ki in assay [1] and in assay [2] was less than 100 nM each time.

Consider `CCCc1cc2c(N[C@H]3CC[C@H](N)CC3)c(-c3cc(NC)ncn3)cnc2[nH]1` [Compound 111, (1r,4r)-N^1-(5-(6-(methylamino)pyrimidin-4-yl)-2-propyl-1H-pyrrolo[2,3-b]pyridine-4-yl)cyclohexane-1,4-diamine hydrochloride], for which the Ki in assay [1] was less than 100 nM; in assay [2] it was 100 to 1000 nM.

For `CCc1cc2c(N[C@H]3CC[C@H](N)CC3)c(C(=O)NCc3ccc(-n4ccnc4)cc3)cnc2[nH]1` [Compound 119, N-(4-(1H-imidazol-1-yl)benzyl)-4-(((1r,4r)-4-aminocyclohexyl)amino)-2-ethyl-1H-pyrrolo[2,3-b]pyridine-5-carboxamide], the Ki was less than 100 nM in assay [1] and 100 to 1000 nM in assay [2].

`CCOC(C)c1cc2c(N[C@H]3CC[C@H](N)CC3)c(C(=O)Nc3ccc(F)cc3)cnc2[nH]1` (some centres unmarked) [Compound 152]: the Ki was 100 to 1000 nM in assay [1] and more than 10000 nM in assay [2].

With `CCCc1cc2c(N[C@H]3CC[C@H](N)CC3)c(-c3ccc(F)cn3)cnc2[nH]1` [Compound 114], the Ki in assay [1] is less than 100 nM; in assay [2], 100 to 1000 nM.

As for `N[C@H]1CC[C@H](Nc2c(C(=O)Nc3ccc(F)cc3)cnc3[nH]c(C(F)(F)F)cc23)CC1` [Compound 135, 4-(((1r,4r)-4-aminocyclohexyl)amino)-N-(4-fluorophenyl)-2-(trifluoromethyl)-1H-pyrrolo[2,3-b]pyridine-5-carboxamide hydrochloride], the results for the Ki in assay [1] and in assay [2] were less than 100 nM and 100 to 1000 nM, respectively.

`CCCc1cc2c(N[C@H]3CC[C@H](N)CC3)c(C(=O)NC3CCOCC3)cnc2[nH]1` [Compound 124]: the Ki in assay [1] is less than 100 nM; in assay [2], 100 to 1000 nM.

Turning to `CCCc1cc2c(N[C@H]3CC[C@H](N)CC3)c(C(=O)NCc3ccc(-n4ccnc4)cc3)cnc2[nH]1` [Compound 121], the Ki in assay [1] is less than 100 nM; in assay [2] it was 100 to 1000 nM.

As for `CCC[C@H](C)c1cc2c(N[C@H]3CC[C@H](N)CC3)c(C(=O)Nc3ccc(F)cc3)cnc2[nH]1` [Compound 149], the results for the Ki in assay [1] and in assay [2] were less than 100 nM and 1000 to 10000 nM, respectively.

In the case of `CCCc1cc2c(N[C@H]3CC[C@H](N)CC3)c(-c3cc(N)ccn3)cnc2[nH]1` [Compound 131], the Ki in assay [1] was less than 100 nM; in assay [2], 1000 to 10000 nM.

For the compound `CCCCCc1cc2c(N[C@H]3CC[C@H](N)CC3)c(C(=O)NCc3ccc(-n4ccnc4)cc3)cnc2[nH]1` [Compound 133], the Ki was less than 100 nM in assay [1] and 100 to 1000 nM in assay [2].

On to `CCCc1cc2c(N[C@H]3CC[C@H](O)CC3)c(-c3cnn(CCN(C)C)c3)cnc2[nH]1` [Compound 107], for which the Ki in assay [1] lay in the range of 100 to 1000 nM; in assay [2] it was 1000 to 10000 nM.

With `CCCc1cc2c(N[C@H]3CC[C@H](N)CC3)c(-c3ccccn3)cnc2[nH]1` [Compound 113], the Ki in assay [1] is less than 100 nM; in assay [2], 1000 to 10000 nM.

Regarding `CCCC(O)c1cc2c(N[C@H]3CC[C@H](N)CC3)c(C(=O)Nc3ccc(F)cc3)cnc2[nH]1` (some centres unmarked) [Compound 154], the Ki in assay [1] was 100 to 1000 nM; in assay [2], more than 10000 nM.

As to `CCCc1cc2c(N[C@H]3CC[C@H](N)CC3)c(Br)cnc2[nH]1` [Compound 142], the Ki was less than 100 nM in assay [1] and 100 to 1000 nM in assay [2].

Take `CCc1cc2c(N[C@H]3CC[C@H](N)CC3)c(C(=O)Nc3ccc(F)cc3)cnc2[nH]1` [Compound 136]: the values for the Ki in assay [1] and in assay [2] were less than 100 nM and 100 to 1000 nM, respectively.

Turning to `CCCc1cc2c(N[C@H]3CC[C@H](N)CC3)c(-c3cc(NC(C)C)ncn3)cnc2[nH]1` [Compound 112], the results for the Ki in assay [1] and in assay [2] were less than 100 nM and 100 to 1000 nM, respectively.

As to `CCCc1cc2c(N[C@H]3CC[C@H](O)CC3)c(-c3ccc(CN4CCCC4)cn3)cnc2[nH]1` [Compound 125], the Ki in assay [1] was less than 100 nM; in assay [2], 100 to 1000 nM.

Regarding `CCCc1cc2c(N[C@H]3CC[C@H](N)CC3)c(-c3ccc(C)nn3)cnc2[nH]1` [Compound 127], the Ki was less than 100 nM in assay [1] and 100 to 1000 nM in assay [2].

In the case of `CCC(C)c1cc2c(N[C@H]3CC[C@H](N)CC3)c(C(=O)Nc3ccc(F)cc3)cnc2[nH]1` (some centres unmarked) [Compound 134], the Ki in assay [1] is less than 100 nM; in assay [2] it was 1000 to 10000 nM.

`Cc1cc2c(N[C@H]3CC[C@H](N)CC3)c(C(=O)Nc3ccc(F)cc3)cnc2[nH]1` [Compound 103]: the Ki was 1000 to 10000 nM in assay [1] and 100 to 1000 nM in assay [2].

On to `CC(O)c1cc2c(N[C@H]3CC[C@H](O)CC3)c(-c3ccc(CN4CCOCC4)cn3)cnc2[nH]1` (some centres unmarked) [Compound 143], for which the figures for the Ki in assay [1] and in assay [2] were less than 100 nM and 1000 to 10000 nM, respectively.

With `CCC(CC)c1cc2c(N[C@H]3CC[C@H](N)CC3)c(C(=O)Nc3ccc(F)cc3)cnc2[nH]1` [Compound 147], the Ki in assay [1] was less than 100 nM; in assay [2], 1000 to 10000 nM.

On to `N[C@H]1CC[C@H](Nc2c(C(=O)NCc3ccc(-n4ccnc4)cc3)cnc3[nH]c(-c4ccccc4)cc23)CC1` [Compound 110], for which the values for the Ki in assay [1] and in assay [2] were less than 100 nM and 1000 to 10000 nM, respectively.

As for `CC(C)c1cc2c(N[C@H]3CC[C@H](N)CC3)c(C(=O)NCc3ccc(-n4ccnc4)cc3)cnc2[nH]1` [Compound 129], the Ki in assay [1] was less than 100 nM; in assay [2], 100 to 1000 nM.

Take `N[C@H]1CC[C@H](Nc2c(C(=O)Nc3ccc(F)cc3)cnc3[nH]c(C4CCC4)cc23)CC1` [Compound 138, 4-(((1r,4r)-4-aminocyclohexyl)amino)-2-cyclobutyl-N-(4-fluorophenyl)-1H-pyrrolo[2,3-b]pyridine-5-carboxamide hydrochloride]: the Ki in assay [1] is less than 100 nM; in assay [2], 1000 to 10000 nM.

Consider `CCCC(O)c1cc2c(N[C@H]3CC[C@H](N)CC3)c(Br)cnc2[nH]1` (some centres unmarked) [Compound 137], for which the values for the Ki in assay [1] and in assay [2] were 100 to 1000 nM and 1000 to 10000 nM, respectively.

With `CCCC(OC)c1cc2c(N[C@H]3CC[C@H](N)CC3)c(C(=O)Nc3ccc(F)cc3)cnc2[nH]1` (some centres unmarked) [Compound 153], the Ki is less than 100 nM in assay [1] and more than 10000 nM in assay [2].
